Measurements published in the NIST ThermoML archive (doi:10.1016/j.jct.2004.06.009).
± gives the expanded uncertainty stated by the source.

Tests used:
[1] = Molar enthalpy of transition or fusion

Triple point temperature (Crystal 1)	Triple point temperature (Crystal 2)	Molar enthalpy of transition or fusion ([1]; Crystal 1)	Molar enthalpy of transition or fusion ([1]; Crystal 2)	Triple point temperature (Crystal)	Molar enthalpy of transition or fusion ([1]; Crystal)	Structure (SMILES)
247.79 ± 0.16 K	223.38 ± 0.16 K	1.54 ± 0.041 kJ/mol	9.31 ± 0.03 kJ/mol	–	–	CC12CC3CC(C1)CC(C)(C3)C2 [1,3-dimethyladamantane]
–	–	–	–	225.56 ± 0.16 K	11.28 ± 0.05 kJ/mol	CCC12CC3CC(CC(C3)C1)C2 [1-ethyladamantane]
